Source: patent publication US8426429B2, “2-amino-quinazoline derivatives useful as inhibitors of β-secretase (BACE)” (Jansssen Pharmaceutica N.V., priority 2004, dated 2013)

Target: T1, β-secretase (BACE) (Homo sapiens, UniProt P56817)
T1 construct: purchased Panvera
Assay: BACE FS1 % Inhibition Assay
Format: biochemical
Method: The following reagents were used in this assay: sodium acetate, PEG8000 (Sigma), DMSO, HEPES, FS1 substrate [[…]] […] The FS1-substrate stock solution was prepared in DMSO as a 10 mg/mL solution. The FS1-substrate working solution was prepared by diluting the 10 mg/mL stock solution with substrate assay buffer to a final concentration of 300 μg/mL. The β-secretase (BACE) working solution was prepared by diluting a 0.83 mg/mL BACE stock solution with enzyme assay buffer to a final concentration of 4 μg/mL. Test compounds were dissolved in DMSO to 10 mM. […] The screening procedure for this assay was as follows: 15 μL of BACE working solution was pipetted into each well of a 96-well plate. To each well was then pipetted 2 μL of test compound at the selected concentration. Test compound and BACE were then mixed with a pipettor and incubated for 20 min at room temperature. To each well was then added 10 μL of the FS1 substrate working solution. The plates were then incubated for 1 hour at room temperature. […] The procedure for the blank was as follows. 15 μL of assay buffer was pipetted into each well to be used as a blank control. To each well was then added 2 μL of vehicle and 10 μL of FS1-substrate working solution. The plates were then incubated for 1 hour at room temperature. […] The procedure for the positive control was as follows: 15 μL of BACE working solution was pipetted into each well to be used as a positive control. To each well was then pipetted 2 μL of vehicle. Vehicle and BACE were then mixed with a pipettor and incubated for 20 min at room temperature. To each well was then added 10 μL of the FS1 substrate working solution. The plates were then incubated for 1 hour at room temperature. […] For test compounds, % inhibition was determined at each concentration as follows: [formula]

T1 sequence (P56817 46-501): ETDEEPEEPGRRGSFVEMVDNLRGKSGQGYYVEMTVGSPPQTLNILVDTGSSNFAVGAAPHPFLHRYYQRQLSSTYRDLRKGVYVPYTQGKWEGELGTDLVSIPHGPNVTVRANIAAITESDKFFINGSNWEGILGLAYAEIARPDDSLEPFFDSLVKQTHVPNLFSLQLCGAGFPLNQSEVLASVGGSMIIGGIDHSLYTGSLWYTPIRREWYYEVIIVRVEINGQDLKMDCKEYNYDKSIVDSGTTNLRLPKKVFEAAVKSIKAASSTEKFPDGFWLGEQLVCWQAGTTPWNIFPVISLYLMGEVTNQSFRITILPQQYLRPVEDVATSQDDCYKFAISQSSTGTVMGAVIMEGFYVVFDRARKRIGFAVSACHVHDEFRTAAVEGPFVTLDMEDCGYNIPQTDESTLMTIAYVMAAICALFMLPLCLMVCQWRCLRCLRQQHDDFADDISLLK

Row | SMILES | % Inhibition (FS) (0.3 μM test compound) | % Inhibition (FS) (1 μM test compound) | % Inhibition (FS) (3 μM test compound) | also measured
1 | CNC(=O)c1ccccc1Sc1ccc2c(c1)CN(Cc1cccc(C(=O)N(C)C3CCCCC3)c1)C(N)=N2 [Compound 416] | <30% | <30% | −3% | –
2 | CN(C(=O)CC(C1CCCCC1)N1Cc2cc(Oc3ccccc3)ccc2N=C1N)C1CCCCC1 (stereo not drawn) [Compound 199] | <30% | <30% | 82% | –
3 | COC(=O)Cc1cccc(CN(C)C(=O)CCC(C2CCCCC2)N2Cc3cc(Oc4ccccc4)ccc3N=C2N)c1 (stereo not drawn) [Compound 775] | – | – | – | % Inhibition (FS) (0.3 μM compound, FS1 substrate): <30%; % Inhibition (FS) (1 μM compound, FS1 substrate): 62%
4 | CCCC(=O)NCCN1Cc2cc(-c3ccccc3F)ccc2N=C1N [Compound 645] | 67% | 57% | 91% | –
5 | CCOC(=O)C1CCC(N(C)C(=O)CCC(C2CCCCC2)N2Cc3cc(Oc4ccccc4)ccc3N=C2N)CC1 (stereo not drawn) [Compound 763] | – | – | – | % Inhibition (FS) (0.3 μM compound, FS1 substrate, 0.3 µM): <30%; % Inhibition (FS) (1 μM compound, FS1 substrate, 1 µM): 84%
6 | CC(=O)c1cccc(-c2ccc3c(c2)CN(CCNC(=O)Cc2ccccc2)C(N)=N3)c1 [Compound 598] | <30% | <30% | 36% | –
7 | CC(CC(=O)NCCN1Cc2cc(-c3ccccc3)ccc2N=C1N)C(F)(F)F (stereo not drawn) [Compound 685] | – | – | – | % Inhibition (FS) (0.3 μM compound, FS1 substrate): 50%; % Inhibition (FS) (1 μM compound, FS1 substrate): 90%
8 | CC(C)CC(=O)NC[C@@H](C(C)C)N1Cc2cc(Oc3ccccc3)ccc2N=C1N [Compound 563] | 101% | 119% | 127% | –
9 | CN(C(=O)c1cccc(CN2Cc3cc(OCC4CCCC4)ccc3N=C2N)c1)C1CCCCC1 [Compound 521] | <30% | <30% | <30% | –
10 | CC1CCCCN1C(=O)CCCC(CCC(=O)N1CCCCC1C)N1Cc2cc(Oc3ccccc3)ccc2N=C1N (stereo not drawn) [Compound 504] | <30% | 31% | 96% | –
11 | CC(C)(C)c1ccc(C(=O)NCCN2Cc3cc(Oc4ccccc4)ccc3N=C2N)cc1 [Compound 156] | – | – | <30% | % Inhibition (FS) (10 μM test compound): 40%
12 | Cc1cccc(Nc2ccc3c(c2)CN(Cc2cccc(C(=O)N(C)C4CCCCC4)c2)C(N)=N3)c1 [Compound 435] | <30% | <30% | 85% | –
13 | NC1=Nc2ccc(Oc3ccccc3)cc2CN1C1CCCCN(C(=O)C23CC4CC(CC(C4)C2)C3)C1 (stereo not drawn) [Compound 550] | <30% | <30% | 67% | –
14 | NC1=Nc2ccc(-c3ccccc3F)cc2CN1CCNC(=O)CCC(F)(F)F [Compound 680] | – | – | – | % Inhibition (FS) (0.3 μM compound, FS1 substrate): 42%; % Inhibition (FS) (1 μM compound, FS1 substrate): 75%; % Inhibition (FS) (3 μM compound, FS1 substrate): 90%
15 | CN(C(=O)c1cccc(CN2Cc3cc(OCc4ccccc4-c4ccccc4)ccc3N=C2N)c1)C1CCCCC1 [Compound 513] | <30% | <30% | <30% | –
16 | CN(C(=O)c1cccc(CN2Cc3cc(Oc4ccc5c(c4)CCCC5)ccc3N=C2N)c1)C1CCCCC1 [Compound 233] | <30% | 32% | 36% | –
17 | CCCCCCCCC(CCC(=O)N(C)C1CCCCC1)N1Cc2cc(Oc3ccccc3)ccc2N=C1N (stereo not drawn) [Compound 210] | <30% | <30% | <30% | –
18 | NC1=Nc2ccc(-c3ccccc3Cl)cc2CN1CCNC(=O)C1CCC1 [Compound 649] | 34% | 65% | 95% | –
19 | CC(C)C(CC(=O)N(C)C1CCCCC1)N1Cc2cc(Oc3ccccc3)ccc2N=C1N (stereo not drawn) [Compound 201] | <30% | <30% | 66% | –

Row | SMILES | % Inhibition (FS) (0.3 μM test compound) | % Inhibition (FS) (1 μM test compound) | % Inhibition (FS) (3 μM test compound) | also measured
20 | NC1=Nc2ccc(-c3ccccc3F)cc2CN1CCNC(=O)C1CCC1 [Compound 642] | 37% | 63% | 96% | –
21 | CN(C(=O)c1ccccc1CN1Cc2cc(Oc3ccccc3)ccc2N=C1N)C1CCCCC1 [Compound 463] | <30% | <30% | <30% | –
22 | CCCC(=O)NCCN1Cc2cc(-c3ccccc3C)ccc2N=C1N [Compound 659] | 43% | 69% | 100% | –
23 | CC(=O)c1cccc(-c2ccc3c(c2)CN(CCNC(=O)c2cc(C)oc2C)C(N)=N3)c1 [Compound 588] | <30% | <30% | <30% | –
24 | CC(C)N(C(=O)CC(C1CCCCC1)N1Cc2cc(Oc3ccccc3)ccc2N=C1N)C1CCCCC1 (stereo not drawn) [Compound 200] | <30% | <30% | <30% | –
25 | NC(=O)c1ccccc1-c1ccc2c(c1)CN(CCNC(=O)C1CCCCC1)C(N)=N2 [Compound 543] | <30% | <30% | <30% | –
26 | CC(C)CCC(=O)NC[C@@H](C(C)C)N1Cc2cc(Oc3ccccc3)ccc2N=C1N [Compound 564] | 112% | 119% | 129% | –
27 | NC1=Nc2ccc(Oc3ccccc3)cc2CN1Cc1cccc(CNC(=O)C2CCCCC2)c1 [Compound 306] | <30% | <30% | 46% | –
28 | COc1ccccc1-c1ccc2c(c1)CN(Cc1cccc(C(=O)N(C)C3CCCCC3)c1)C(NC(C)=O)=N2 [Compound 607] | 94% | 116% | 123% | –
29 | NC1=Nc2ccc(-c3ccc(F)cc3)cc2CN1CCNC(=O)C1CCCCC1 [Compound 623] | <30% | – | – | % Inhibition (FS) (1 μM test compound, 1 µM): <30%; % Inhibition (FS) (3 μM test compound, 3 µM): 82%
30 | CC(C)(C)C(=O)NCCN1Cc2cc(-c3ccccc3F)ccc2N=C1N [Compound 646] | 52% | 72% | 97% | –
31 | CN(C(=O)c1cccc(CN2Cc3cc(Nc4ccc5ccccc5c4)ccc3N=C2N)c1)C1CCCCC1 [Compound 436] | <30% | 37% | 50% | –
32 | NC1=Nc2ccc(Oc3ccccc3)cc2CN1Cc1cccc(C(=O)N2CCC3CCCCC3C2)c1 (stereo not drawn) [Compound 193] | <30% | 34% | 67% | –
33 | COC(=O)C1CCCC(N(C)C(=O)CCC(C2CCCCC2)N2Cc3cc(Oc4ccccc4)ccc3N=C2N)C1 (mixture of isomers) [Compound 777] | – | – | – | % Inhibition (FS) (0.3 μM compound, FS1 substrate): 38%; % Inhibition (FS) (1 μM compound, FS1 substrate): 97%
34 | CC(C)c1ccccc1Oc1ccc2c(c1)CN(C(CC(=O)NC1CCCCC1)C1CCCCC1)C(N)=N2 (stereo not drawn) [Compound 313] | <30% | <30% | 31% | –
35 | NC1=Nc2ccc(Oc3ccccc3)cc2CN1CCNCC1CCCCC1 [Compound 427] | <30% | 26% | 62% | –
36 | NC1=Nc2ccc(-c3ccccc3Cl)cc2CN1CCNC(=O)CCC(F)(F)F [Compound 682] | – | – | – | % Inhibition (FS) (0.3 μM compound, FS1 substrate): 39%; % Inhibition (FS) (1 μM compound, FS1 substrate): 77%; % Inhibition (FS) (3 μM compound, FS1 substrate): 97%
37 | CN(C(=O)c1ccc2c(c1)C(N1Cc3cc(Oc4ccccc4)ccc3N=C1N)CC2)C1CCCCC1 (stereo not drawn) [Compound 145] | – | – | <30% | % Inhibition (FS) (10 μM test compound): 37%
